Literature values, collected in US20050090475A1, “Extended triphasic contraceptive regimens” (priority 2003, published 2005).

Columns and labels:
[1] = ovariectomized rat, compared with progesterone
endometrium = conditions: animal models
[2] = target: T1, endometrial progesterone receptors (Homo sapiens, UniProt P06401)
T1 sequence (P06401 1-933): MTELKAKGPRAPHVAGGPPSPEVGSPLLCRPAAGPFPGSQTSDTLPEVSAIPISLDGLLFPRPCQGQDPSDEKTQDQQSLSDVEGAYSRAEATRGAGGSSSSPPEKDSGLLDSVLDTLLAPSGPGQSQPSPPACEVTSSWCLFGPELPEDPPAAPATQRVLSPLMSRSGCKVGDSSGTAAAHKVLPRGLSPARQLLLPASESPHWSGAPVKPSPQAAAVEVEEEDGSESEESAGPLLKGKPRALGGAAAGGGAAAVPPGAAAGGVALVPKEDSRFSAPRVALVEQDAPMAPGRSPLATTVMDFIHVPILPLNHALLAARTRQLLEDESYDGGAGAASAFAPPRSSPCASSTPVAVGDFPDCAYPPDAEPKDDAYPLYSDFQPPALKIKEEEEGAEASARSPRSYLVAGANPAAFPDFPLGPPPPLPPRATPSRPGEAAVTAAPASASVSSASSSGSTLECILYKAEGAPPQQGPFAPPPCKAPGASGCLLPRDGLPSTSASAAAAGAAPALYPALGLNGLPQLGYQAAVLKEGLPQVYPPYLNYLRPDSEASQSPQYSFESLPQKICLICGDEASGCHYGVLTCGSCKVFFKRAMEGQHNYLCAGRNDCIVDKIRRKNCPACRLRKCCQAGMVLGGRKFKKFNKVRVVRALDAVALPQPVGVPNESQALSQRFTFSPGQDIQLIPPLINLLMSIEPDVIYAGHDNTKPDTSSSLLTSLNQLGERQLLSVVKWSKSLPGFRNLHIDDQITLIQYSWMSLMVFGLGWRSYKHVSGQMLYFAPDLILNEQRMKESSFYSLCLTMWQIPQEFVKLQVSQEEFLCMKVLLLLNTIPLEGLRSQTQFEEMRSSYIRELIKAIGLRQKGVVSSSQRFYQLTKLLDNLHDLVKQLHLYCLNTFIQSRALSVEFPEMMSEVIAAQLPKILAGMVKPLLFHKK

[3] = test system: serum hormone binding globulin (SHBG); conditions: in vivo

In the case of C#C[C@]1(OC(C)=O)CC[C@H]2[C@@H]3CCC4=CC(=NO)CC[C@@H]4[C@H]3CC[C@@]21CC (mixture of isomers) [norgestimate], the maintenance of pregnancy [1] is listed as “maintains pregnancy as well as progesterone”, the “endometrium in comparison to other, more androgenic, progestins” value (endometrium) is listed as “remains relatively thick and supported” and the “affinity for endometrial progesterone receptors” value [2] is listed as “high affinity”. The “effect on serum hormone binding globulin (SHBG) levels” value [3] was “minimal effect”.
